Laboratory results as given in publication PMC3347614 (Acta Naturae, 2011).
“Also recorded” adds a separate entry of the source.

Molecular target: T1, DNA gyrase (Escherichia coli, UniProt P0AES4+P0AES6)
T1 construct: His6 (N); made in house; host or cells: Escherichia coli Rosetta (DE3)
Assay: Inhibition of DNA gyrase supercoiling of relaxed plasmid pBR322 (agarose gel electrophoresis)
Assay type: biochemical, E. coli
Conditions: qualitative statement
Protocol: The reaction mixture (30 µl) contained 35 mM Tris-HCl (pH 7.5), 24 mM KCl, 4 mM MgCl 2 , 1.4 mM ATP, 5 mM DTT, 1.8 mM spermidine, and 0.1 mg/ml of a bovine serum albumin. A mixture of DNA gyrase A and B subunits (0.4 µg) and 0.25–0.5 µg of the substrate (relaxed plasmid pBR322) were added to the reaction probe. The reaction was performed for 60 min at 25°C (for multiple samples, 96-well plates were used). After the reaction was completed, the samples were extracted with an equal volume of chloroform (30 µl). Then, 7 µl of the mixture containing […], 25% of glycerol, and 0.25% of bromphenol blue were added to the aqueous phase. The mixture was applied on a 1.2% agarose gel in TAE buffer (40 mM Tris-acetate, pH 8.0, 2 mM EDTA) and analyzed with electrophoresis (50 V, 2 h). The products were visualized under UV-light after staining with ethidium bromide. The activity of the enzyme (%) was determined from the intensity of the band corresponding to the super-coiled form of plasmid pBR322 and estimated using the Total Lab v2.01 software.
An equal volume of DMSO was added to the control. The reaction was started upon addition of DNA gyrase (0.4 µg) and relaxed plasmid pBR322 (0.25–0.5 µg), which was used as a substrate, and performed as described above. Calculations were made using the Total Lab v2.01 program.

T1 sequence (P0AES4 whole entry, one chain of several): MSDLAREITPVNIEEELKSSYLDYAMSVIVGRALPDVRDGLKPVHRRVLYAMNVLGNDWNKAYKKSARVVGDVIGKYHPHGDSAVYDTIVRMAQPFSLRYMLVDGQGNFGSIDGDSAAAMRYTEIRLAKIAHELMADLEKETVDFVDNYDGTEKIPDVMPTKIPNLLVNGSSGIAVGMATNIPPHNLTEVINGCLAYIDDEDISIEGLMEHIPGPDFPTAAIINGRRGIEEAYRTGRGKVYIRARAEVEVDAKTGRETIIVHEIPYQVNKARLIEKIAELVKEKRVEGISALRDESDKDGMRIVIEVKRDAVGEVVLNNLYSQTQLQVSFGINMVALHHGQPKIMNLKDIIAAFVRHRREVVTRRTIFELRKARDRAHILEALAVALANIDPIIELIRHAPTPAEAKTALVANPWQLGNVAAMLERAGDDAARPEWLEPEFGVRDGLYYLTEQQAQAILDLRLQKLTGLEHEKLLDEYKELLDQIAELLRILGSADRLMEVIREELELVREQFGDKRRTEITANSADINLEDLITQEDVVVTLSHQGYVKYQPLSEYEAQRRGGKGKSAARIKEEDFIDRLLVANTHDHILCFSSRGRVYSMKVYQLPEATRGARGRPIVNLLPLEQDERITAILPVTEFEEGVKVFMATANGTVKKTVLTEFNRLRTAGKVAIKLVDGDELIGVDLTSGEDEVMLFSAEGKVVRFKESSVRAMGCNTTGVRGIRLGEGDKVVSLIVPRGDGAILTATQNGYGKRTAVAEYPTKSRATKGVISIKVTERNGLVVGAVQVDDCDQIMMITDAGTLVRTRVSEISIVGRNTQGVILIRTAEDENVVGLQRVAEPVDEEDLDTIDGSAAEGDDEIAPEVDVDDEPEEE

Row | Compound | Inhibitory activity towards DNA gyrase, in words
1 | CC1COc2c(ccc(F)c2F)N1 (racemic) [IOS-RS, (R,S)-7,8-Difluoro-3-methyl-2,3-dihydro-4H-benzo[b][1, 4]-oxazine] | no significant activity
2 | CCOC(=O)c1cn2c3c(c(F)c(F)cc3c1=O)OC[C@@H]2C [IOS-E, Ethyl ester of (3S)-(-)-9,10-difluoro-3-methyl-7-oxo-2,3-dihydro-7H-pyrido[1,2,3-d,e][1, 4]-benzoxazine-6-carboxylic acid] | no significant activity; also recorded: practically inactive
3 | C[C@H]1COc2c(F)c(F)cc3c(=O)c(C(=O)O)cn1c23 [IOS-K, (3S)-(-)-Difluoro-3-methyl-7-oxo-2,3-dihydro-7H-pyrido[1,2,3-d,e][1, 4]-benzoxazine-6-carboxylic acid] | significant inhibitory activity
4 | CCn1cc(C(=O)O)c(=O)c2cc(F)c(N3CCNCC3)cc21 [IOS-NORFL_01, norfloxacin, reference compound] | poor inhibitor
5 | C[C@H]1COc2c(ccc(F)c2F)N1 [IOS-S, (3S)-2,3-Dihydro-3-methyl-7,8-difluoro-1,4-benzoxazine] | no significant activity

Same assay, conditions: relative to levofloxacin, in words

Row | Compound | Activity towards DNA gyrase compared with that of levofloxacin
6 | CN1C2=Nn3cc(C(=O)O)c(=O)c4c(F)c(F)c(N5CCCC5)c(c43)N2c2cc(F)c(F)cc21 [EV-465] | two orders of magnitude
7 | C[C@H]1COc2c(F)c(F)cc3c(=O)c(C(=O)O)cn1c23 [IOS-K, (3S)-(-)-Difluoro-3-methyl-7-oxo-2,3-dihydro-7H-pyrido[1,2,3-d,e][1, 4]-benzoxazine-6-carboxylic acid] | lower by an order of magnitude

Same assay, conditions: relaxed pBR322, 60 min, 25°C

Row | Compound | I50 (inhibition activity towards DNA gyrase)
8 | CCOC(=O)c1cn2c3c(c(F)c(F)cc3c1=O)OC(c1cccnc1)=N2 [EV-313-D] | EV-313-D Inactive
9 | O=C(O)c1cn2c3c(c(N4CCCC4)c(F)cc3c1=O)OC(c1cccc([N+](=O)[O-])c1)=N2 [EV-452-D] | EV-452-D Inactive
10 | O=C(O)c1cn2c3c(c(N4CCOCC4)c(F)cc3c1=O)SC(NC1CCCCC1)=N2 [EV-572] | EV-572 Inactive
11 | O=C(O)c1cn2c3c(c(F)c(F)cc3c1=O)NC(c1ccccc1)=N2 [EV-591] | EV-591 Inactive
12 | O=C(C(=C1Nc2ccccc2N1)c1nc(=O)c2cc(F)c(F)c(F)c2s1)c1ccccc1 [EV-N51-B] | EV-N51-B Inactive
13 | O=c1nc(Nc2ncccn2)sc2c(F)c(F)c(F)cc12 [EV-N119-2] | EV-N119-2 Inactive
14 | O=c1[nH]c(N/N=C/c2ccccc2O)nc2c(F)c(N3CCCC3)c(F)cc12 [EV-T143-B] | EV-T143-B Inactive
15 | Oc1ccccc1/C=N\Nc1nc(-c2ccccc2)nc2cccc(F)c12 [EV-T150-C] | EV-T150-C Inactive
16 | O=c1c2cc(F)c(F)cc2nc(/C=C/c2ccccc2O)n1-c1ccccc1 [EV-T156] | EV-T156 Inactive
17 | CCSc1nc(Nc2ccc(F)c(F)c2)c2cc(F)c(F)c(F)c2n1 [EV-X58-A] | EV-X58-A Inactive
18 | CC(C)(C)c1cc(-n2c(-c3ccccc3)nc3cc(F)c(F)cc3c2=O)no1 [EV-X149] | EV-X149 Inactive

Same assay, conditions: relaxed pBR322, 60 min, 25°C; read-out: I50 (inhibition activity towards DNA gyrase)

Row | Compound | IC50 [µM]
19 | CN1C2=Nn3cc(C(=O)O)c(=O)c4c(F)c(F)c(N5CCCC5)c(c43)N2c2cc(F)c(F)cc21 [EV-465] | > 63.4
